Test results: US20080033026A1, “Antimicrobial compositions, methods and systems” (priority 2006, published 2008)

Columns and labels:
Assay type in all cases: cell-based
[1] = test system: Ulocladium atrum (ATCC 52426); assay: MIC on Potato Dextrose Agar; details: PDA agar, 25-30° C.
Experimental: (§1) The efficacy of antimicrobial compositions in accordance with aspects of the invention against the following organisms was determined as follows. The following organisms were incubated in the presence of varying concentrations of 9-decenoic acid (9-DA) on an agar surface: Aspergillus parasiticus (ATCC 56857), Trichoderma virens (ATCC 9645), Aspergillus flavus (ATCC 96045), Cladosporium cladosporiodes (ATCC 16022), Aspergillus flavus (ATCC 5917), Aspergillus oryzae (ATCC 10124), Aspergillus parasiticus (ATCC 13539), Ulocladium atrum (ATCC 52426), Candida albicans (ATCC 11651), Aspergillus niger (ATCC 11414).
(§2) Fungal spores were hydrated in 0.1% Tween 80 and then plated onto Potato Dextrose Agar (PDA) (Difco # 213400; Becton, Dickinson and Company, Sparks, Md.) and incubated at 25-30° C. for six (6) days. The spores were washed from the surface with 5 ml of 0.1% Tween 80 and enumerated.
(§3) PDA plates were prepared according to the manufacturer's instructions through sterilization. The agar was tempered to approximately 50° C. and filter sterilized. Antimicrobial compositions containing 9-DA were added by percent weight to molten autoclaved PDA media, with consideration of specific gravity (0.915 g/mL for 9-DA) and purity (98% for 9-DA). The agar was thoroughly mixed and poured into sterile petri plates and allowed to solidify.
(§4) The agar plates were inoculated with the spore solution to achieve 10^2 spores/plate. The plates were incubated at 25-30° C. in Ziploc bags with a wet paper towel to keep the moisture level high. The plates were examined for growth at 1, 2, 3, 4, 8, 11, 15, 17, 23, 29 and 31 days. The percent coverage of growth on the agar surface was recorded at each sample point.

[2] = test system: Aspergillus parasiticus (ATCC 13539); assay: MIC on Potato Dextrose Agar; details: PDA agar, 25-30° C.
Experimental: as §1, §2, §3, §4

[3] = test system: Staphylococcus aureus (ATCC 6538); assay: Time-kill determination
Experimental: The assessment of efficacy of 9-decenoic acid against a spectrum of microorganisms was determined using the American Society for Testing and Materials (ASTM) procedure entitled “Standard Test Method for the Assessment of Microbiocidal Activity of Test Materials Using a Time-Kill Procedure,” October 1998. This procedure incorporates the recommendations described in the “Manual of Clinical Microbiology,” 5th ed., edited by A. B. Balows et al., ASM, Washington, and is directed by the Federal Register, June 1994.
Challenge organisms were prepared as follows. Cultures of the following organisms were obtained: Staphylococcus aureus (ATCC 6538), Pseudomonas aeruginosa (ATCC 15442), Staphylococcus epidermidis (ATCC 12228), Klebsiella pneumoniae (ATCC 4352), Escherichia coli 0157:H7 (ATCC 43895) and Candida albicans (ATCC 10231). The stock cultures were transferred to sterile tubes and sterile tryptic soy broth (TSB) was added to the cultures. The mixture was incubated for 18-24 hours at 37° C. (±2° C.). A portion of this culture was then transferred onto TSA plates and incubated for 18-24 hours at 37° C. (±2° C.). The plates were removed from incubation and the bacterial growth was washed from the agar surface using Butterfield's Phosphate Buffered Dilution Water (PBDW).
The bacterial suspension was adjusted to contain approximately 10^8 Colony Forming Units (CFU) per ml with PBDW. The concentration was adjusted to an optical density (OD) of 0.4-0.5 (versus a PBDW blank) at 620 nm in a UV-Vis spectrophotometer, and this optical density gave approximately 10^8 colony forming units per milliliter (cfu/ml). The standardized suspension was stored under appropriate conditions until it was used as the challenge inoculum.
Concentrated 9-decenoic acid (97%) was diluted in filter sterilized isopropanol to yield a 25,000 ppm stock solution. Subsequent dilutions to the 9-decenoic acid stock solutions were made with sterile Deionized Water (DI) to achieve concentrations of 0.1%, 0.05%, 0.01% and 0.001%. The pH was determined for each dilution; pH values ranged from 4.4-4.1. […] In addition, 9-decenoic acid stock solution was combined with Triclosan™ (obtained from Ciba Specialty Chemical Corporation, under the tradename Irgasan DP 300™) in various ratios, as indicated in Table 8. The pH of the combined solution was 7.
Compliant with the ASTM procedure cited, for each challenge microorganism a 9.9 ml aliquot of the prepared 9-decenoic acid suspension was added to a sterile tube. A 0.1 ml aliquot of the standardized inoculum was added to the 9-decenoic acid solution representing the start of the test exposure. The inoculated 9-decenoic acid solution was immediately mixed thoroughly. The inoculated suspension was held at room temperature for 0.5, 2, 5, 7 and 10-minute exposure times for tests run at pH level of approximately 4. The pH 7 tests were held at room temperature for 0.5 and 2 minutes.
At each exposure sample time, a 1.0 ml aliquot of the inoculated 9-decenoic acid suspension was transferred to 9.0 ml of D/E Neutralizing Broth. Additional ten-fold serial dilutions were made in PBDW and plated in duplicate on TSA. All plates were incubated for 48 hours at 37° C. (±2° C.) and visually examined for growth. The plates were enumerated, recorded and log kill determined for each time point.
The following study controls were conducted: culture purity, neutralizer sterility, initial suspension population, test population, neutralization verification and a negative control using isopropanol. Culture purity was verified by performing a streak plate for isolated colonies of each culture used. All cultures were determined to be pure based on consistent colony morphology typical for the test organism. The neutralizer sterility was confirmed by no growth in an incubated sample.
The populations of the initial and test culture were determined by serial dilution, plating and enumerating after incubation. The initial suspension were determined to be ≧10^4 CFU/ml. […]

## C=CCCCCCCCC(=O)O [9-decenoic acid]
[1]
  MIC: 0.025%
[2]
  MIC: 0.05%
[3]; 0.01% 9-decenoic acid, pH 4.4, exposure 0.5 min
  Log reduction: 1.4 log
[3]; 0.01% 9-decenoic acid, pH 4.4, exposure 2 min
  Log reduction: 4.6 log
[3]; 0.01% 9-decenoic acid, pH 4.4, exposure 5 min
  Log reduction: >6.5 log
[3]; 0.01% 9-decenoic acid, pH 4.4, exposure 7 min
  Log reduction: >6.5 log
[3]; 0.01% 9-decenoic acid, pH 4.4, exposure 10 min
  Log reduction: >6.5 log
[3]; 0.05% 9-decenoic acid, pH 4.1, exposure 0.5 min
  Log reduction: >6.5 log
[3]; 0.05% 9-decenoic acid, pH 4.1, exposure 2 min
  Log reduction: >6.5 log
[3]; 0.05% 9-decenoic acid, pH 4.1, exposure 5 min
  Log reduction: >6.5 log
[3]; 0.05% 9-decenoic acid, pH 4.1, exposure 7 min
  Log reduction: >6.5 log
[3]; 0.05% 9-decenoic acid, pH 4.1, exposure 10 min
  Log reduction: >6.5 log
[3]; 0.05% 9-decenoic acid, pH 7, exposure 0.5 min
  Log reduction: 0 log
[3]; 0.05% 9-decenoic acid, pH 7, exposure 2 min
  Log reduction: 0 log
[3]; 0.1% 9-decenoic acid, pH 4.1, exposure 0.5 min
  Log reduction: >6.5 log
[3]; 0.1% 9-decenoic acid, pH 4.1, exposure 2 min
  Log reduction: >6.5 log
[3]; 0.1% 9-decenoic acid, pH 4.1, exposure 5 min
  Log reduction: >6.5 log
[3]; 0.1% 9-decenoic acid, pH 4.1, exposure 7 min
  Log reduction: >6.5 log
[3]; 0.1% 9-decenoic acid, pH 4.1, exposure 10 min
  Log reduction: >6.5 log
[3]; 0.75% 9-decenoic acid, pH 7, exposure 0.5 min
  Log reduction: 0.67 log
[3]; 0.75% 9-decenoic acid, pH 7, exposure 2 min
  Log reduction: 1 log
[3]; 1% 9-decenoic acid, pH 7, exposure 0.5 min
  Log reduction: 2.1 log
[3]; 1% 9-decenoic acid, pH 7, exposure 2 min
  Log reduction: 3.2 log
